Key:
[1] = Particle size distribution of ORZY-05 by static automated imaging (Morphologi 4); type: physicochemical; conditions: ORZY-05 particles
Method: The materials and methods were essentially as in Example 7. In the present example, the cooling time of the cooling step of from 30° C. to 0° C. subsequent to addition of acetone was varied and its influence on the particle size of ORZY-05 was determined. The cooling time is a measure of how long it takes to reach 0° C. from 30° C. The particle size distribution (PSD) data shown in Table 3 were acquired using static automated imaging (Morphology 4).
Morphologi 4: The Particle size distribution of Arimoclomol citrate (ORZY-05) was also measured using a Malvern Morphologi 4 equipment.
Wet measurement was used for the needle shaped particles. […] Measurements were made using a thin path wet cell (75*75 mm). Samples were prepared by adding 20 mL of dispersant to 10 mg of API, followed by 30 s of stirring and 2 min of sonication in order to break the agglomerates. A microscope magnifier of X10 or X20 was used, and segmentation sharp edge and/or thresholding was used to improve the focus microscope focus.

[2] = Particle size distribution of ORZY-05 by Malvern Mastersizer 3000; type: physicochemical; conditions: ORZY-05 particles, Malvern Mastersizer 3000, volume distribution
Method: Further batches of ORZY-05 were prepared essentially as in Example 7 and the ORZY-05 particles were examined using Malvern Mastersizer 3000 as described in Example 11.
Malvern Mastersizer 3000: Particle size distribution of Arimoclomol citrate (ORZY-05) was determined by light scattering using a Malvern Mastersizer 3000 particle size analyzer (Malvern Instruments Ltd, Grovewood Road, Malvern, Worcestershire WR14 1XZ, United Kingdom) with a Hydro MV wet-dispersion unit attached. 2-Propanol with 1.8 g/L SPAN-85 additive was used as a dispersion medium (“dispersant”) and added to the dispersion unit. Prior to sample addition, the background counts of the system were determined by circulating the dispersant through the measurement cell under measurement conditions (2500 rpm stirrer speed). Samples for analysis were prepared by adding a suitable amount of Arimoclomol citrate to a 10 mL vial and pre-dispersing it with dispersant under light agitation for a few seconds. The pre-dispersed sample was then pipetted into the Hydro MV dispersion unit filled with dispersant to meet a laser obscuration range of 10-15%. A single-use PE pipette was used for this and representative sampling from the 10 mL vial was ensured by continuous agitation. […] Volume distributions were obtained and the D10, D50 and D90 were calculated from these distributions and reported. For each sample, a single sample preparation was analyzed using red light measurement only. Upon measurement completion, the sample cell was emptied and cleaned.

Compound	Number CE Diameter D10 [1] [μm]	Number CE Diameter D50 [1] [μm]	Number CE Diameter D90 [1] [μm]	Number CE Diameter Mean [1] [μm]	Number Length D10 [1] [μm]	Number Length D50 [1] [μm]	Number Length D90 [1] [μm]	Volume CE Diameter D10 [1] [μm]	Volume CE Diameter D50 [1] [μm]	Volume CE Diameter D90 [1] [μm]	Volume CE diameter D[3,2] [1] [μm]	Volume CE diameter D[4,3] [1] [μm]	D10 [2] [μm]	D50 [2] [μm]	D90 [2] [μm]
O=C(O)CC(O)(CC(=O)O)C(=O)O.[O-][n+]1cccc(/C(Cl)=N/OC[C@H](O)CN2CCCCC2)c1 [17-001, arimoclomol citrate]	0.60	1.60	9.40	3.70	1.70	4.70	22.00	9.40	24.70	44.40	17.70	25.70	–	–	–
O=C(O)CC(O)(CC(=O)O)C(=O)O.[O-][n+]1cccc(/C(Cl)=N/OC[C@H](O)CN2CCCCC2)c1 [17-002, arimoclomol citrate]	0.70	2.20	7.40	3.40	1.10	3.20	13.90	6.20	14.00	35.00	11.40	17.10	–	–	–
O=C(O)CC(O)(CC(=O)O)C(=O)O.[O-][n+]1cccc(/C(Cl)=N/OC[C@H](O)CN2CCCCC2)c1 [17-003, arimoclomol citrate]	1.00	2.00	5.80	2.90	1.40	3.20	10.50	4.60	11.10	26.70	8.80	13.70	–	–	–
O=C(O)CC(O)(CC(=O)O)C(=O)O.[O-][n+]1cccc(/C(Cl)=N/OC[C@H](O)CN2CCCCC2)c1 [17-004, arimoclomol citrate]	0.80	2.00	23.50	6.70	1.50	4.00	40.70	24.60	38.90	52.20	34.20	38.80	–	–	–
O=C(O)CC(O)(CC(=O)O)C(=O)O.[O-][n+]1cccc(/C(Cl)=N/OC[C@H](O)CN2CCCCC2)c1 [18-001, arimoclomol citrate]	0.80	2.50	10.70	4.60	1.80	4.10	16.80	11.20	26.40	37.60	19.50	25.40	–	–	–
O=C(O)CC(O)(CC(=O)O)C(=O)O.[O-][n+]1cccc(/C(Cl)=N/OC[C@H](O)CN2CCCCC2)c1 [18-002, arimoclomol citrate]	0.90	2.20	10.10	4.20	1.50	3.60	16.60	10.90	22.70	36.00	17.90	23.30	–	–	–
O=C(O)CC(O)(CC(=O)O)C(=O)O.[O-][n+]1cccc(/C(Cl)=N/OC[C@H](O)CN2CCCCC2)c1 [18-003, arimoclomol citrate]	4.40	21.80	38.20	22.10	8.00	29.90	56.10	24.00	37.60	58.30	35.40	41.10	–	–	–
O=C(O)CC(O)(CC(=O)O)C(=O)O.[O-][n+]1cccc(/C(Cl)=N/OC[C@H](O)CN2CCCCC2)c1 [18-004, arimoclomol citrate]	3.70	12.00	29.20	14.90	5.30	15.40	40.00	19.40	39.80	81.20	33.90	45.90	–	–	–
O=C(O)CC(O)(CC(=O)O)C(=O)O.[O-][n+]1cccc(/C(Cl)=N/OC[C@H](O)CN2CCCCC2)c1 [compound 1001, arimoclomol citrate]	2.41	5.28	17.81	8.16	2.90	7.03	26.69	13.10	25.95	47.14	21.77	29.46	7.00	21.00	63.00
O=C(O)CC(O)(CC(=O)O)C(=O)O.[O-][n+]1cccc(/C(Cl)=N/OC[C@H](O)CN2CCCCC2)c1 [compound 2001, arimoclomol citrate]	–	–	–	–	–	–	–	–	–	–	–	–	17.2	47.2	112
O=C(O)CC(O)(CC(=O)O)C(=O)O.[O-][n+]1cccc(/C(Cl)=N/OC[C@H](O)CN2CCCCC2)c1 [compound 2002, arimoclomol citrate]	–	–	–	–	–	–	–	–	–	–	–	–	4.33	12.5	37.9
O=C(O)CC(O)(CC(=O)O)C(=O)O.[O-][n+]1cccc(/C(Cl)=N/OC[C@H](O)CN2CCCCC2)c1 [compound 2003, arimoclomol citrate]	–	–	–	–	–	–	–	–	–	–	–	–	4.65	13.5	40.7
O=C(O)CC(O)(CC(=O)O)C(=O)O.[O-][n+]1cccc(/C(Cl)=N/OC[C@H](O)CN2CCCCC2)c1 [compound 2004, arimoclomol citrate]	–	–	–	–	–	–	–	–	–	–	–	–	10.2	34.8	87
O=C(O)CC(O)(CC(=O)O)C(=O)O.[O-][n+]1cccc(/C(Cl)=N/OC[C@H](O)CN2CCCCC2)c1 [compound 2005, arimoclomol citrate]	–	–	–	–	–	–	–	–	–	–	–	–	11.2	35.6	82.6
O=C(O)CC(O)(CC(=O)O)C(=O)O.[O-][n+]1cccc(/C(Cl)=N/OC[C@H](O)CN2CCCCC2)c1 [compound 2006, arimoclomol citrate]	–	–	–	–	–	–	–	–	–	–	–	–	11.6	35.6	77.7
